# Results from patent publication US20070167488A1, “Novel therapeutic use” (Leo Pharma A/S, priority 2003, published 2007).
# Where two headings read alike, the source gives them in different places.
# How the values were obtained:
# [1] = tested on: IL-2; test: Inhibition of IL-2 production in phytohemagglutinin-activated human PBMCs (sandwich ELISA); format: cell-based; details: approximately 46 hours; for IC50: PBMC, read-out: IL-2 pIC50 (converted)
# Protocol: Peripheral blood mononuclear cells (PBMCs) were isolated from human blood. The lymphocytes, a fraction of the PBMCs, were activated to secrete IL-2 using the polyclonal mitogen phytohemagglutinin. The test compounds were added in concentrations from 10^−5 to 10^−10, and the cells (10^6/ml) were incubated in microtiter wells at 37° C. for approximately 46 hours.
# After 46 hours the cells were centrifuged down for 25 minutes at 1000×g and the supernatants were transferred to transferred to microtiter wells precoated with a monoclonal antibody against human IL-2. The IL-2 concentration in the supernatants was determined by a sandwich ELISA. Microtiter plates were coated (1 μg/ml) with a monoclonal antibody (R&D, UK) against human IL-2, washed 4 times, blocked with 1% casein buffer for 2 hours and washed 2 times. 100 μl sample was added to each well and incubated overnight. All samples were tested in triplicate. 100 μl IL-2 standards (R&D, UK) at a concentration range of 10000-0 pg/ml were tested in triplicate. After incubation the plates were washed and incubated with biotinylated polyclonal secondary antibody against human IL-2 (R&D, UK) for 45 minutes and thereafter washed 4 times. 100 μl enzyme conjugate, horseradish peroxidase conjugated streptavidin diluted 1:4000 (Zymed, USA), was added to all wells and incubated for 30 minutes. 100 μl OPD substrate (KEM EN TEC-DK) was added and the enzyme/substrate reaction stopped after 10 minutes at room temperature with 50 μl 1 M H2SO4. The colour development (optical density—OD) was determined at 492 nm on an ELISA reader and the background OD at 620 nm subtracted).
# [2] = tested on: EAE induced in SJL/J mice with a peptide from myelin proteolipid protein (PLP139-153); test: EAE model in SJL/J mice immunized with PLP139-153 peptide; format: in vivo, mouse
# [3] = Table 4, 50 mg/kg daily, treatment as in example 4
Compound,"IC50 ([1]; Homo sapiens, 46 h) [nM]",further results
Cc1cc(C)c(/C=C2\C(=O)Nc3ccccc32)[nH]1,–,IC50 [1]: 0.2 nM
COc1ccc(OC)c(/C=C2\C(=O)Nc3ccc(Cl)cc32)c1,20,–
COc1ccc(/C=C2\C(=O)Nc3ccc(Cl)cc32)cc1,10,–
Cc1cc(C)c(/C=C2\C(=O)Nc3cccc(C)c32)[nH]1,39.8,–
COc1cc[nH]c1/C=C1\C(=O)Nc2ccc(Cl)cc21,50.1,–
Cc1[nH]c(/C=C2\C(=O)Nc3cccc(Cl)c32)c(C)c1CCC(=O)O,50.1,–
Cc1cc(C)c(/C=C2\C(=O)Nc3cccc(Cl)c32)[nH]1,1,–
COc1cc[nH]c1/C=C1\C(=O)Nc2cccc(Cl)c21,0.1,–
Cc1cc(C)c(/C=C2\C(=O)Nc3cccc(C(=O)O)c32)[nH]1,100,–
O=C1Nc2ccccc2/C1=C\c1c(-c2ccccc2)[nH]c2ccccc12,100,–
COc1ccc(CN2C(=O)/C(=C\c3[nH]c(C)cc3C)c3ccccc32)cc1,31.6,–
Cc1cc(C)c(/C=C2\C(=O)Nc3ccc(O)cc32)[nH]1,794,–
Cc1cc(C)c(/C=C2\C(=O)Nc3ccc(F)cc32)[nH]1,100,–
O=C1Nc2ccccc2/C1=C\c1cc(Cl)cc(Cl)c1OCc1ccc2ccccc2n1,100,–
COc1ccc(OC)c(/C=C2/C(=O)Nc3ccc(N)cc32)c1,–,IL-2 pIC50 [1]: 6.5
COc1ccc(OC)c(/C=C2/C(=O)Nc3ccc(N)cc32)c1.CS(=O)(=O)O,–,IL-2 pIC50 [1]: 7.2
"COc1cccc(C=C2C(=O)Nc3ccccc32)c1 (racemic) [Compound 153, 3-(3-methoxy-benzylidene)-1,3-dihydro-indol-2-one]",–,"Inhibition (%) of EAE (area-under-curve of the disease score) [2, 3]: 38%"
"O=C1Nc2ccccc2C1=Cc1cc(Cl)ccc1Cl (racemic) [Compound 193, 3-(2,5-dichloro-benzylidene)-1,3-dihydro-indol-2-one]",–,"Inhibition (%) of EAE (area-under-curve of the disease score) [2, 3]: 37%"
"CCOC(=O)c1cc(C)c(/C=C2\C(=O)Nc3ccccc32)[nH]1 [Compound 01, 4-methyl-5-(2-oxo-1,2-dihydro-indol-3-ylidenemethyl)-1H-pyrrole-2-carboxylic acid ethyl ester]",–,"Inhibition (%) of EAE (area-under-curve of the disease score) [2, 3]: 44%"
"Cc1cc(C(=O)NCCO)[nH]c1/C=C1\C(=O)Nc2ccccc21 [Compound 02, 4-methyl-5-(2-oxo-1,2-dihydro-indol-3-ylidenemethyl)-1H-pyrrole-2-carboxylic acid (2-hydroxy-ethyl)-amide]",–,"Inhibition (%) of EAE (area-under-curve of the disease score) [2, 3]: 41%"
"Cc1cc(CO)[nH]c1/C=C1\C(=O)Nc2ccccc21 [Compound 03, 3-(5-hydroxymethyl-3-methyl-1H-pyrrol-2-ylmethylene)-1,3-dihydro-indol-2-one]",–,"Inhibition (%) of EAE (area-under-curve of the disease score) [2, 3]: 57%"
"Cc1[nH]c(/C=C2\C(=O)Nc3ccccc32)c(C)c1Br [Compound 22, 3-(4-bromo-3,5-dimethyl-1H-pyrrol-2-ylmethylene)-1,3-dihydro-indol-2-one]",–,"Inhibition (%) of EAE (area-under-curve of the disease score) [2, 3]: 78%"
"O=C(O)Cn1cc(/C=C2\C(=O)Nc3ccccc32)c2ccccc21 [Compound 26, [3-(2-oxo-1,2-dihydro-indol-3-ylidenemethyl)-indol-1-yl]-acetic acid]",–,"Inhibition (%) of EAE (area-under-curve of the disease score) [2, 3]: 34%"
"CCCn1cc(/C=C2\C(=O)Nc3ccccc32)c2ccccc21 [Compound 31, 3-(1-propyl-1H-indol-3-ylmethylene)-1,3-dihydro-indol-2-one]",–,"Inhibition (%) of EAE (area-under-curve of the disease score) [2, 3]: 60%"
"COc1ccc(CN(C)C)cc1/C=C1/C(=O)Nc2ccccc21 [Compound 32, 3-(5-dimethylaminomethyl-2-methoxy-benzylidene)-1,3-dihydro-indol-2-one]",–,"Inhibition (%) of EAE (area-under-curve of the disease score) ([2]; Table 7, 50 mg/kg p.o., suspension vehicle): 40%"
"Cc1cc(C)c(/C=C2\C(=O)N(O)c3ccccc32)[nH]1 [Compound 45, 3-(3,5-dimethyl-1H-pyrrol-2-ylmethylene)-1-hydroxy-1,3-dihydro-indol-2-one]",–,"Inhibition (%) of EAE (area-under-curve of the disease score) [2, 3]: 67%"
"CC(=O)ON1C(=O)/C(=C\c2[nH]c(C)cc2C)c2ccccc21 [Compound 51, acetic acid 3-(3,5-dimethyl-1H-pyrrol-2-ylmethylene)-2-oxo-2,3-dihydro-indol-1-yl ester]",–,"Inhibition (%) of EAE (area-under-curve of the disease score) [2, 3]: 48%"
"Cc1[nH]c2ccccc2c1/C=C1/C(=O)Nc2ccccc21 [Compound 75, 3-(2-methyl-1H-indol-3-ylmethylene)-1,3-dihydro-indol-2-one]",–,"Inhibition (%) of EAE (area-under-curve of the disease score) [2, 3]: 63%"
"Cc1ccc(C)c(/C=C2/C(=O)Nc3ccccc32)c1 [Compound 104, 3-(2,5-dimethyl-benzylidene)-1,3-dihydro-indol-2-one]",–,"Inhibition (%) of EAE (area-under-curve of the disease score) [2, 3]: 71%"
Cc1cc(C)c(/C=C2\C(=O)N(O)c3ccccc32)[nH]1 [drawing 224],10,–

# Further lines, with some results ahead:
"IC50 ([1]; Homo sapiens, 46 h) [nM]",Compound,further results
1,O=C1Nc2ccccc2/C1=C/c1c[nH]c2ccccc12,–
316,O=CN1CCN(c2ccc(/C=C3\C(=O)Nc4ccccc43)cc2)CC1,–
20,O=C1Nc2ccccc2/C1=C/c1cc(Br)ccc1O,–
100,O=C1Nc2ccc(Cl)cc2/C1=C/c1ccccc1O,–
50.1,Cc1[nH]c(/C=C2\C(=O)Nc3ccccc32)c(C)c1CCC(=O)O,–
20,COc1cc[nH]c1/C=C1\C(=O)Nc2ccccc21,–
3.98,O=C1Nc2ccccc2/C1=C/c1cn(Cc2ccccc2)c2ccccc12,–
2,Cn1cc(/C=C2\C(=O)Nc3ccccc32)c2ccccc21,–
200,Cc1cc(C(=O)O)[nH]c1/C=C1\C(=O)Nc2ccccc21,–
3.98,O=C1Nc2ccccc2/C1=C\c1ccc(-c2ccccc2)o1,–
20,O=C1Nc2ccccc2/C1=C\c1ccc(Br)s1,–
6.31,O=C1Nc2ccccc2/C1=C\c1cc(Br)cs1,–
31.6,O=C1Nc2ccccc2/C1=C\c1ccc([N+](=O)[O-])s1,–
631,O=C1Nc2ccccc2/C1=C\c1ccoc1,–
6.31,COc1cccc(/C=C2/C(=O)Nc3ccccc32)c1,–
100,Cc1ccc(C)c(/C=C2/C(=O)Nc3ccccc32)c1 [drawing 112],–
3.98,COc1ccc(OC)c(/C=C2/C(=O)Nc3ccccc32)c1 [drawing 114],–
0.2,CCCn1cc(/C=C2\C(=O)Nc3ccccc32)c2ccccc21 [drawing 137],–
10,CCOC(=O)c1cc(C)c(/C=C2\C(=O)Nc3ccccc32)[nH]1 [drawing 139],–
39.8,Cc1cc(CO)[nH]c1/C=C1\C(=O)Nc2ccccc21 [drawing 144],–
1,COc1ccc(OC)c(/C=C2/C(=O)Nc3cc(Br)ccc32)c1 [drawing 164],–
31.6,Cc1cc(C(=O)NCCO)[nH]c1/C=C1\C(=O)Nc2ccccc21 [drawing 176],–
794,Cc1[nH]c2ccccc2c1/C=C1/C(=O)Nc2ccccc21 [drawing 197],–
79.4,Cc1[nH]c(/C=C2\C(=O)Nc3ccccc32)c(C)c1Br [drawing 211],–
39.8,O=C(O)Cn1cc(/C=C2\C(=O)Nc3ccccc32)c2ccccc21 [drawing 229],–
